This is an account of results in patent US7294633B2, “Oxazolo-and furopyrimidines and their use in medicaments against tumors” (Novartis AG, priority 2001, dated 2007).

One may read the melting point as the temperature of the solid-liquid transition.

Molecules are shown by their SMILES.

`C[C@@H](Nc1ncnc2oc(-c3cccc(N)c3)cc12)c1ccccc1` [Example 13, 4-(1R-phenylethylamino)-6-(3-aminophenyl)furo[2,3-d]pyrimidine] registered a melting point of 64 to 84 °C.
